Measurements published in patent US20260218197A1, “EXTRACELLULAR VESICLE SECRETION REDUCING AGENT FOR REDUCING EXTRACELLULAR VESICLE SECRETION, AND USE OF THE SAME” (THEORIA SCIENCE INC., priority 2020, published 2026).

Tested on: MDA-MB-231_Luc_D3H2LN cell line
Test: Mice implanted with breast cancer metastatic cell line
Assay type: in vivo
Settings: 40 mg/kg intraperitoneal injection every day from Day 7, vs non-administration group (PBS)
Description: As a breast cancer metastatic cell line, an MDA-MB-231_Luc_D3H2LN cell line (hereafter referred to as D3H2LN) was used. […] Specifically, the amounts of secreted EVs in the parent cell line and the D3H2LN were measured by the NTA analysis in the same manner as in Example A1, and also, expression of PSAT1 in the parent cell line and the D3H2LN were measured by Western blotting.
Immunodeficient mice C. B-17 scid mice (female, 6-week old) were used as mice. The D3H2LN was suspended in PBS to prepare a cell suspension of 1×10^6 cells/100 μL. Then, on the 0th day (Day 0), 100 μL of the cell suspension was subcutaneously implanted in the mammary gland of each mouse by injection. Then, on the 7th day (Day7), the D3H2LN cells had engrafted, and to mice of an inhibitor administration group (n=6), an NCT-503 solution (solvent: PBS) was administered by intraperitoneal injection every day at 40 mg/kg of body weight. To mice of a non-administration group (n=6, Vehicle), the same amount of PBS was administered every day instead of the NCT-503. For each of the mice in both the administration group and the non-administration group, the tumor volume in the primary lesion (mammary gland) was measured every week using an IVIS-Spectrum (Summit Pharmaceuticals International Corporation). Specifically, the tumor volume was calculated as per the mathematical expression using the longest diameter and the shortest diameter (shortest diameter×shortest diameter×longest diameter×0.5). Also, the body weight of each mouse was measured every day to determine the toxicity. On the 35th day (Day 35), the mice were sacrificed and the mammary gland as the primary lesion and the lungs as the metastatic lesion were excised from each mouse, after which the weight of the primary lesion was measured.

Cc1cc(C)nc(NC(=S)N2CCN(Cc3ccc(C(F)(F)F)cc3)CC2)c1 [NCT-503]
tumor volume of the primary lesion (mammary gland) (Day 21 and Day 35): significantly reduced | metastatic lesions in the lungs (HE-stained) (Day 35): fewer metastatic lesions | tumor weight of the primary lesion (mammary gland) (Day 35): significantly reduced
